# Columns and labels:
# Experiment in all cases: Test B pre-/postemergence plant response
# Assay type in all cases: in vivo
# [1] = test system: galium (catchweed bedstraw, Galium aparine); conditions: Preemergence
# How it was run: (§1)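 Ratings reflect visual comparison with untreated controls 13 to 15 days after application, from 0 (no effect) to 100 (complete control). Application was preemergence to seeded loam/sand soil or postemergence to 1- to 4-leaf plants, with compound in a non-phytotoxic, surfactant-containing solvent.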
# [2] = test system: nightshade (eastern black nightshade, Solanum ptycanthum); conditions: Preemergence
# How it was run: as §1
# [3] = test system: sunflower (common oilseed sunflower, Helianthus annuus); conditions: Preemergence
# How it was run: as §1
# [4] = test system: goosegrass (Eleusine indica); conditions: Preemergence, 62 g ai/ha; scale 0 to 100 (0 no effect, 100 complete control)
# [5] = 31 g ai/ha, scale 0 to 100 (0 no effect, 100 complete control)
# [6] = 62 g ai/ha, scale 0 to 100 (0 no effect, 100 complete control)
smiles,measurement,setting,value
Cc1ccccc1-n1c(-c2ccccc2)ncc(C(=O)C2=C(O)CCCC2=O)c1=O [Compound 12],"Plant response rating, Galium","[1]; 250 g ai/ha, 0 to 100 scale",95
same,"Plant response rating, Galium",[1]; [5],0
same,"Plant response rating, Galium",[1]; [6],50
same,Galium plant response rating,"[1]; 125 g ai/ha, 0 to 100 scale",90
same,"Plant response rating, Nightshade","[2]; 250 g ai/ha, 0 to 100 scale",100
same,"Plant response rating, Nightshade",[2]; [5],100
same,"Plant response rating, Nightshade",[2]; [6],100
same,Nightshade plant response rating,"[2]; 125 g ai/ha, 0 to 100 scale",100
same,"Plant response rating, Sunflower","[3]; 250 g ai/ha, 0 to 100 scale",100
same,"Plant response rating, Sunflower",[3]; [5],95
same,"Plant response rating, Sunflower",[3]; [6],98
same,Sunflower plant response rating,"[3]; 125 g ai/ha, 0 to 100 scale",98
same,"Plant response rating, Goosegrass",[4],95
